According to patent US9757408B2 (Hayashibara Co., Ltd., priority 2010, dated 2017):
Marks after values point to notes of the source that are not given here.

Key:
[1] = test system: mice with concanavalin A (Con A) induced liver disorder; test: Concanavalin A induced liver disorder mice: GPT, GOT, liver necrosis score (Experiment 12); type: in vivo, BALB/c mice; set-up: Liver function GPT / Liver function GOT: unit not given here; conditions: Con A 15 mg/kg i.v.; for Liver function GOT / Liver function GPT: serum 20 hours after Con A; for Conditions of liver tissue, Necrosis (average score): grades mild (1), moderate (2), severe (3)
Protocol: “TYPE IV”, a Con A specimen commercialized by Sigma-Aldrich Corporation, St. Louis, Mo. USA, was dissolved in physiological saline and intravenously administered to all the five mice in each six groups at a dose of 15 mg/0.2 mL. […] The five mice in the remaining one group as a control were intravenously administered with 0.2 mL/head of physiological saline, simultaneously with Con A (Experiment group 1).
For the mice in each group, they were collected blood at 20 hours after administering Con A, followed by assaying the activity of GPT and GOT in their sera with “TRANSAMINASE CII-TEST WAKO”, a commercialized assay kit produced by Wako Pure Chemical Industries Ltd., Tokyo, Japan, for use as an index for liver disorder due to hepatitis. […] The tissue specimens were stained with hematoxylin-eosin staining, followed by calculating an average of scores for judgement on the conditions of necrosis of liver tissues by microscopic observation, for use as an index for liver disorder. The results are in Table 12 in parallel. The conditions of necrosis of liver tissues were evaluated based on a microscopic observation standard of three grades of “mild (1)”, “moderate (2)”, and “severe (3)” and scored before determining the average for each group.

[2] = test system: mice with colitis induced by dextran sulfate sodium; test: Dextran sulfate sodium colitis mice: diarrhea/hematochezia scores, DAI, haptoglobin (Experiment 13); type: in vivo, C57BL/6 mice; conditions: dextran sulfate sodium intake; for Content of haptoglobin: blood on 11th day
Protocol: Dextran sulfate sodium (commercialized by MP Biomedicals, CA, USA, molecular weight of 36,000 to 50,000) was dissolved in tap water, and all the mice of these five groups consisting of eight heads each were allowed to freely take the solution for five days (Experiment groups 2 to 5). […] The eight mice of the remaining one group were administered through a gastric tube with PBS once a day at a dose of 0.2 mL/head over 11 days from the day of initiating the administration of dextran sulfate sodium (Experiment group 2). The five mice of one group, which had not been administered with dextran sulfate sodium, were bred for 11 days on the normal feed while allowing them to take tap water freely (Experiment group 1).
The mice were weighed and their degree of diarrhea and hematochezia were macroscopically observed every day over 11 days from the day of initiating the intake of dextran sulfate sodium. The body weight reduction percentage (%) was determined by dividing the body weight of a mouse at 11th day after initiating the intake of dextran sulfate sodium by the body weight of the mouse at the day of initiating the intake, and multiplying the value by 100, and subtracting the resulting value from 100. The scores of diarrhea and hematochezia and the body weight reduction percentage (%) in each mouse were scored according to the criteria as shown in Table 13. For each group, the average of the total scores of diarrhea and hematochezia on days ranging from the day (intake day 0) of initiating the intake of dextran sulfate sodium to 11th day therefrom (intake day 10) are determined and shown in Table 14. The total scores of diarrhea, hematochezia, and body weight reduction percentage for each mouse at 11th day (intake day 10) after initiating the intake of dextran sulfate sodium are calculated for disease activity index (DAI) used as an index for colitis, averaged for each group, and shown in Table 14. On 11th day after initiating the intake of dextran sulfate sodium, each mouse was collected blood, followed by assaying haptoglobin or an acute phase protein, as an index for inflammatory, on an ELISA kit commercialized by Life Diagnostics USA, and averaging the data for each group. The results are in Table 14 in parallel. Since one mouse in Experiment group 2 administered with only dextran sulfate sodium was dead at 11th day after initiating the intake of dextran sulfate sodium, the results of Experiment group 2 at 11th day (intake day 10) after initiating the intake of dextran sulfate sodium represent the average of seven mice.

[3] = test system: IL-8 production from NHEK cells; test: IL-8 production from NHEK cells irradiated with ultraviolet B (Experiment 17); type: cell-based, human; conditions: for IL-8: NHEK cells, stimulation by ultraviolet rays; for production of IL-8 from NHEK cells induced by ultraviolet rays: UVB 40 mJ/cm^2, supernatant at six hours
Protocol: “CELLMATRIX TYPE IV”, a product name of collagen for tissue culture commercialized by Nitta Gelatin Inc., Osaka, Japan, which had been diluted with PBS(K-) by 10 times, was previously placed in “FALCON 35-3001”, a product name of 35 mm petri dish commercialized by Becton Dickinson and Company, NJ, USA, in an amount of 1 mL/plate, and then allowed to stand at ambient temperature for 10 min, followed by removing an excessive amount of CELLMATRIX, drying the petri dish in air, and washing it thrice with PBS(K-). […] The cells were cultured at 37° C. in a 5% v/v CO2 incubator. On the 2nd and 4th days after the cell inoculation, the medium was replaced with EpiLife medium free of EDGS (1 mL/plate). On the 5th day after the cell inoculation, the supernatant was removed, and the petri dish was washed twice by adding 1 mL/petri dish of Hanks' balanced salt solution (called “HBSS (−) buffer”, hereinafter). Further, 2 mL/petri dish of HBSS (−) buffer was added to the petri dish which was then placed in the position 15 cm apart from an ultraviolet ray light source and irradiated with 40 mJ/cm^2 of ultraviolet B radiation. […] As an ultraviolet ray light source, “NS-8F”, a light source for actual use commercialized by Sanwa Medical Co., Ltd., Okayama, Japan, equipped with an ultraviolet B radiation lamp was used, and the radiation dose was measured on “UVR-305/365D (II)”, an ultraviolet ray meter commercialized by Topcon Corporation, Tokyo, Japan. TNF-α was assayed by the same method as in Experiment 2. The remaining other cytokines were assayed with an IL-1α assay kit, commercialized by R & D Systems Inc., MN, USA, and an IL-8 assay kit commercialized by BioLegend, CA, USA.

[4] = 94 mg/kg orally once a day, day 0

Nc1ncnc2c1ncn2[C@@H]1O[C@H](CO)[C@@H](O)[C@H]1O [AN, adenosine]
Liver function GOT ([1]; 127 mg/kg i.v. simultaneously): 4130* | Liver function GPT ([1]; 127 mg/kg i.v. simultaneously): 1917 | Conditions of liver tissue, Necrosis (average score) ([1]; 127 mg/kg i.v.): 2.5 | Content of haptoglobin ([2]; 94 mg/kg orally once a day): 4.0 mg/mL | Total scores of diarrhea and hematochezia, day 0 [2, 4]: 0 | Total scores of diarrhea and hematochezia, day 1 ([2]; 94 mg/kg orally once a day): 0 | Total scores of diarrhea and hematochezia, day 2 ([2]; 94 mg/kg orally once a day): 0 | Total scores of diarrhea and hematochezia, day 3 ([2]; 94 mg/kg orally once a day): 0.3 | Total scores of diarrhea and hematochezia, day 4 ([2]; 94 mg/kg orally once a day): 1.0 | Total scores of diarrhea and hematochezia, day 5 ([2]; 94 mg/kg orally once a day): 1.4 | Total scores of diarrhea and hematochezia, day 6 ([2]; 94 mg/kg orally once a day): 1.3 | Total scores of diarrhea and hematochezia, day 7 ([2]; 94 mg/kg orally once a day): 1.4 | Total scores of diarrhea and hematochezia, day 8 ([2]; 94 mg/kg orally once a day): 1.4 | Total scores of diarrhea and hematochezia, day 9 ([2]; 94 mg/kg orally once a day): 1.4 | DAI (total scores of diarrhea, hematochezia, and body weight reduction percentage), day 10 ([2]; 94 mg/kg orally once a day): 4.6 | Total scores of diarrhea and hematochezia, day 10 ([2]; 94 mg/kg orally once a day): 1.6 | IL-8 ([3]; 1 μM): 177 pg/mL | IL-8 ([3]; 5 μM): 172 pg/mL | IL-8 ([3]; 10 μM): 175 pg/mL | production of IL-8 from NHEK cells induced by ultraviolet rays [3]: did not influence

Nc1c2ncn([C@@H]3O[C@H](CO)[C@@H](O)[C@H]3O)c2nc[n+]1[O-] [ANO, adenosine N1-oxide]
Liver function GOT ([1]; 45 mg/kg i.v. simultaneously): 2941++ | Liver function GPT ([1]; 45 mg/kg i.v. simultaneously): 1477* | Conditions of liver tissue, Necrosis (average score) ([1]; 45 mg/kg i.v.): 2.4 | Liver function GOT ([1]; 75 mg/kg i.v. simultaneously): 2654** | Liver function GPT ([1]; 75 mg/kg i.v. simultaneously): 1229* | Liver function GOT ([1]; 135 mg/kg i.v. simultaneously): 1343** | Liver function GPT ([1]; 135 mg/kg i.v. simultaneously): 687** | Conditions of liver tissue, Necrosis (average score) ([1]; 135 mg/kg i.v.): 2.0 | Content of haptoglobin ([2]; 33 mg/kg orally once a day): 3.7 mg/mL | Total scores of diarrhea and hematochezia, day 0 ([2]; 33 mg/kg orally once a day, day 0 after initiating the intake): 0 | Total scores of diarrhea and hematochezia, day 1 ([2]; 33 mg/kg orally once a day): 0 | Total scores of diarrhea and hematochezia, day 2 ([2]; 33 mg/kg orally once a day): 0 | Total scores of diarrhea and hematochezia, day 3 ([2]; 33 mg/kg orally once a day): 0 | Total scores of diarrhea and hematochezia, day 4 ([2]; 33 mg/kg orally once a day): 0.3 | Total scores of diarrhea and hematochezia, day 5 ([2]; 33 mg/kg orally once a day): 0.3 | Total scores of diarrhea and hematochezia, day 6 ([2]; 33 mg/kg orally once a day): 0.5 | Total scores of diarrhea and hematochezia, day 7 ([2]; 33 mg/kg orally once a day): 0.6 | Total scores of diarrhea and hematochezia, day 8 ([2]; 33 mg/kg orally once a day): 0.9 | Total scores of diarrhea and hematochezia, day 9 ([2]; 33 mg/kg orally once a day): 0.8 | DAI (total scores of diarrhea, hematochezia, and body weight reduction percentage), day 10 ([2]; 33 mg/kg orally once a day): 3.8* | Total scores of diarrhea and hematochezia, day 10 ([2]; 33 mg/kg orally once a day): 0.7 | Content of haptoglobin ([2]; 100 mg/kg orally once a day): 2.9* mg/mL | Total scores of diarrhea and hematochezia, day 0 ([2]; 100 mg/kg orally once a day, day 0): 0 | Total scores of diarrhea and hematochezia, day 1 ([2]; 100 mg/kg orally once a day): 0 | Total scores of diarrhea and hematochezia, day 2 ([2]; 100 mg/kg orally once a day): 0 | Total scores of diarrhea and hematochezia, day 3 ([2]; 100 mg/kg orally once a day): 0.3 | Total scores of diarrhea and hematochezia, day 4 ([2]; 100 mg/kg orally once a day): 0.4 | Total scores of diarrhea and hematochezia, day 5 ([2]; 100 mg/kg orally once a day): 0.4 | Total scores of diarrhea and hematochezia, day 6 ([2]; 100 mg/kg orally once a day): 0.5 | Total scores of diarrhea and hematochezia, day 7 ([2]; 100 mg/kg orally once a day): 0.6 | Total scores of diarrhea and hematochezia, day 8 ([2]; 100 mg/kg orally once a day): 0.6 | Total scores of diarrhea and hematochezia, day 9 ([2]; 100 mg/kg orally once a day): 0.7 | DAI (total scores of diarrhea, hematochezia, and body weight reduction percentage), day 10 ([2]; 100 mg/kg orally once a day): 3.4** | Total scores of diarrhea and hematochezia, day 10 ([2]; 100 mg/kg orally once a day): 0.6 | IL-8 ([3]; 1 μM): 107 pg/mL | IL-8 ([3]; 5 μM): 89 pg/mL | IL-8 ([3]; 10 μM): 51 pg/mL | production of IL-8 from NHEK cells induced by ultraviolet rays [3]: inhibited

OC[C@H]1O[C@@H](n2cnc3c(O)ncnc32)[C@H](O)[C@@H]1O [IN, inosine]
Liver function GOT ([1]; 127 mg/kg i.v. simultaneously): 5243 | Liver function GPT ([1]; 127 mg/kg i.v. simultaneously): 2061 | Conditions of liver tissue, Necrosis (average score) ([1]; 127 mg/kg i.v.): 2.6 | Content of haptoglobin ([2]; 94 mg/kg orally once a day): 3.9 mg/mL | Total scores of diarrhea and hematochezia, day 0 [2, 4]: 0 | Total scores of diarrhea and hematochezia, day 1 ([2]; 94 mg/kg orally once a day): 0 | Total scores of diarrhea and hematochezia, day 2 ([2]; 94 mg/kg orally once a day): 0 | Total scores of diarrhea and hematochezia, day 3 ([2]; 94 mg/kg orally once a day): 0.1 | Total scores of diarrhea and hematochezia, day 4 ([2]; 94 mg/kg orally once a day): 0.8 | Total scores of diarrhea and hematochezia, day 5 ([2]; 94 mg/kg orally once a day): 1.1 | Total scores of diarrhea and hematochezia, day 6 ([2]; 94 mg/kg orally once a day): 1.2 | Total scores of diarrhea and hematochezia, day 7 ([2]; 94 mg/kg orally once a day): 1.1 | Total scores of diarrhea and hematochezia, day 8 ([2]; 94 mg/kg orally once a day): 1.2 | Total scores of diarrhea and hematochezia, day 9 ([2]; 94 mg/kg orally once a day): 1.2 | DAI (total scores of diarrhea, hematochezia, and body weight reduction percentage), day 10 ([2]; 94 mg/kg orally once a day): 4.1 | Total scores of diarrhea and hematochezia, day 10 ([2]; 94 mg/kg orally once a day): 1.3 | IL-8 ([3]; 1 μM): 166 pg/mL | IL-8 ([3]; 5 μM): 169 pg/mL | IL-8 ([3]; 10 μM): 140 pg/mL | production of IL-8 from NHEK cells induced by ultraviolet rays [3]: did not influence
